Experimental data published in patent publication US20120214846A1, “HEXAHYDROCYCLOPENTYL[F]INDAZOLE PYRIDYL ETHANOLS AND DERIVATIVES THEREOF AS SELECTIVE GLUCOCORTICOID RECEPTOR MODULATORS” (MERCK SHARP & DOHME CORP, priority 2009, published 2012).
Read-outs that look alike come from different tables or passages of the source.

Target: T1, GR (Homo sapiens, UniProt P04150)
T1 sequence (P04150 1-777): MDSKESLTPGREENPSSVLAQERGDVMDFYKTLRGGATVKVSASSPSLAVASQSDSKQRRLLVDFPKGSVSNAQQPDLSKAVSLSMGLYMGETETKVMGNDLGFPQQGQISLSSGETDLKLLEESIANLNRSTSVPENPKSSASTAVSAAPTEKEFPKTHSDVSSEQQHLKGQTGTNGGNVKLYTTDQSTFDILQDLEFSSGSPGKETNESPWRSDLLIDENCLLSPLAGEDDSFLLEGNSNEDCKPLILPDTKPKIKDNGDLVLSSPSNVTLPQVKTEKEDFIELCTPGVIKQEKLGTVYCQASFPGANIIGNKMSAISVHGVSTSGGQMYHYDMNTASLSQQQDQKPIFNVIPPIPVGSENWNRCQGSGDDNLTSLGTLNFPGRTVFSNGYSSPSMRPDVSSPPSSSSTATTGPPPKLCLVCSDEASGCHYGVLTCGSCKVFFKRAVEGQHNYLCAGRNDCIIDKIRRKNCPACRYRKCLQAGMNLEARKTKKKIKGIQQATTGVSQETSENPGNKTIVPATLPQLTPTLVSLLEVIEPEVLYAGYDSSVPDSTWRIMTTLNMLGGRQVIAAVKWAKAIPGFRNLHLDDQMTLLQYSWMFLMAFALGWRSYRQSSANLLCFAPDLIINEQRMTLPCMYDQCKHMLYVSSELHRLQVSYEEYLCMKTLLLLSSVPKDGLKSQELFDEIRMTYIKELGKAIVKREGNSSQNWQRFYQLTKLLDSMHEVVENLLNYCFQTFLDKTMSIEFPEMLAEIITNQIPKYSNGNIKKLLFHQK
Experiment: Transrepression Assay (GITAR), TNFα-β-lactamase reporter, U937 cells
Format: cell-based
Design: U937 cells contain an endogenous glucocorticoid receptor (GR); endogenous in cells; host or cells: U937 cells stably transfected with the TNF-alpha promoter beta-lactamase reporter
Source text: This assay assesses the ability of test compounds to control transcription from the TNFα-β-lactamase reporter gene in U937 cells, a human myelomonocytic leukemia cell line that naturally expresses the human GR. The assay measures compound dependent-repression of the TNFa promoter linked to a reporter gene.
The human U937 cells that had been stablely transfected with the TNF-α promoter driving […] are used for this assay. U937 cells contain an endogenous glucocorticoid receptor (GR). […] 50,000 cells/well are plated in 96 well black-walled plates the day of assay. Test compounds are added 10 μL/well, and cells are incubated at 37° C. for 30˜45 min. For assaying compounds, first dilute 1:10 in DMSO to make 1 mM, then further dilute 1:100 in medium to make 10× stock prior to adding to the cells. Add 50 ng/ml PMA (Sigma, cat#P8139) 10 μL/well to a final concentration 5 ng/ml, and 1 μg/ml LPS (Sigma, cat#L4130) 10 μL/well to a final concentration 100 ng/ml. Incubate cells at 37° C. overnight for ˜18 hr. PMA is stored frozen as 100 μg/ml stock in DMSO. Dilute 1:10 in DMSO for a working stock of […] and store at −20 C. For assaying, dilute the 10 μg/ml working stock 1:200 in medium to make a 10× solution (50 ng/ml). Store frozen LPS at 1 mg/ml in PBS, dilute 1:1000 in medium to make 10× (1 μg/ml) for the assay. Add 6× loading buffer (CCF2-AM) 20 μL/well, and incubate at room temperature for 70˜90 min. […] The activity repressed by 100 nM dexamethasone alone is set as 100% activity.

[1] = U937 cells, inflection point, read-out: Transrepression U937 Cells GITAR IP
[2] = U-937, U937 cells, activity repressed by 100 nM dexamethasone set as 100%, read-out: Transrepression U937 Cells GITAR Emax
[3] = U937 cells, activity repressed by 100 nM dexamethasone set as 100%
[4] = Table 4, literature compounds, read-out: GITAR IP
[5] = U-937, Table 4, literature compounds, read-out: GITAR EMAX

Row | Transrepression U937 Cells GITAR Emax [3] [%] | SMILES | EC50 [1] [nM] | Emax [2] [%] | EC50 [4] [nM] | Emax [5] [%]
1 | – | Cc1cccnc1C(O)C[C@]1(O)CCC2=Cc3c(cnn3-c3ccc(F)cc3)C[C@@]21C (single isomer, unassigned) [Example 1a] | 95.2 | 71.3 | – | –
2 | – | C[C@]12Cc3cnn(-c4ccc(F)cc4)c3C=C1CC[C@@]2(O)CC(O)c1ccccn1 (single isomer, unassigned) [Example 2a] | 237 | 63.5 | – | –
3 | – | C[C@]12Cc3cnn(-c4ccc(F)cc4)c3C=C1CC[C@@]2(O)CC(O)c1cc(C(F)(F)F)ccn1 (single isomer, unassigned) [Example 5a] | 67.5 | 89.1 | – | –
4 | 75.6 | C[C@]12Cc3cnn(-c4ccc(F)cc4)c3C=C1CC[C@@]2(O)CC(O)c1cc(C(F)(F)F)ccn1 (single isomer, unassigned) [Example 5b] | 145 | – | – | –
5 | – | C[C@]12Cc3cnn(-c4ccc(F)cc4)c3C=C1CC[C@@]2(O)CC(O)c1ccc(F)cn1 (single isomer, unassigned) [Example 7a] | 441 | 75.2 | – | –
6 | 83.0 | C[C@]12Cc3cnn(-c4ccc(F)cc4)c3C=C1CC[C@@]2(O)CC(O)c1ccc(F)cn1 (single isomer, unassigned) [Example 7b] | 248 | – | – | –
7 | – | C[C@]12Cc3cnn(-c4ccc(F)cc4)c3C=C1CC[C@@]2(O)CC(O)c1cc(Cl)ccn1 (single isomer, unassigned) [Example 8a] | 96.7 | 77.9 | – | –
8 | 97.5 | C[C@]12Cc3cnn(-c4ccc(F)cc4)c3C=C1CC[C@@]2(O)CC(O)c1cc(Br)ccn1 (single isomer, unassigned) [Example 10a] | 230 | – | – | –
9 | 64.3 | C[C@]12Cc3cnn(-c4ccc(F)cc4)c3C=C1CC[C@@]2(O)CC(O)c1cc(Br)ccn1 (single isomer, unassigned) [Example 10b] | 48 | – | – | –
10 | – | C[C@]12Cc3cnn(-c4ccc(F)cc4)c3C=C1CC[C@@]2(O)C#Cc1ccccc1 [Ex. 1 WO 04/075840 A2, reference compound] | – | – | 1660 | 12.8
11 | – | C[C@]12Cc3cnn(-c4ccc(F)cc4)c3C=C1CCC[C@@H]2[C@@H](O)Cc1ccccc1 [Ex. 22 WO 03/086294 A2, reference compound] | – | – | 242 | 76.8
12 | – | C[C@]12Cc3cnn(-c4ccc(F)cc4)c3C=C1CCC[C@@H]2[C@@H](O)CCc1ccccc1 [Ex. 30 WO 03/086294 A2, reference compound] | – | – | 165 | 82.9
13 | – | C[C@]12Cc3cnn(-c4ccc(F)cc4)c3C=C1CCC[C@@H]2[C@@H](O)c1ccccc1 [Ex. 35 WO 03/86294 A2, reference compound] | – | – | 200 | 78.8
14 | – | CO[C@@]1(CCc2ccccc2Cl)CCC2=Cc3c(cnn3-c3ccc(F)cc3)C[C@@]21C [Ex. 103 WO 04/075840 A2, reference compound] | – | – | 191 | 93.3
15 | – | COc1ccnc(C(O)C[C@]2(O)CCC3=Cc4c(cnn4-c4ccc(F)cc4)C[C@@]32C)c1 (stereo partly drawn) [Example 3, (4αS,5R)-1-(4-fluorophenyl)-5-[2-hydroxy-2-(4-methoxypyridin-2-yl)ethyl]-4α-methyl-1,4,4α,5,6,7-hexahydrocyclopenta[f]indazol-5-ol] | 111 | 81.3 | – | –
16 | – | C[C@]12Cc3cnn(-c4ccc(F)cc4)c3C=C1CC[C@@]2(O)CC(O)c1ncccc1F (stereo partly drawn) [Example 4, (4αS,5R)-1-(4-fluorophenyl)-5-[2-(3-fluoropyridin-2-yl)-2-hydroxyethyl]-4α-methyl-1,4,4α,5,6,7-hexahydrocyclopenta[f]indazol-5-ol] | 360 | 70.6 | – | –
17 | – | C[C@]12Cc3cnn(-c4ccc(F)cc4)c3C=C1CC[C@@]2(O)CC(O)c1ccc(C(F)(F)F)cn1 (stereo partly drawn) [Example 6, (4αS,5R)-1-(4-fluorophenyl)-5-{2-hydroxy-2-[5-(trifluoromethyl)pyridin-2-yl]ethyl}-4α-methyl-1,4,4α,5,6,7-hexahydrocyclopenta[f]indazol-5-ol] | 344 | 76.2 | – | –
18 | – | C[C@]12Cc3cnn(-c4ccc(F)cc4)c3C=C1CC[C@@]2(O)CC(O)c1cc(C#N)ccn1 (stereo partly drawn) [Example 9, 2-{2-[(4αS,5R)-1-(4-fluorophenyl)-5-hydroxy-4α-methyl-1,4,4α,5,6,7-hexahydrocyclopenta[f]indazol-5-yl]-1-hydroxyethyl}pyridine-4-carbonitrile] | 48 | 74.9 | – | –
19 | – | Cc1ccnc(C(O)C[C@]2(O)CCC3=Cc4c(cnn4-c4ccc(F)cc4)C[C@@]32C)c1 (stereo partly drawn) [Example 11, (4αS,5R)-1-(4-fluorophenyl)-5-[2-hydroxy-2-(4-methylpyridin-2-yl)ethyl]-4α-methyl-1,4,4α,5,6,7-hexahydrocyclopenta[f]indazol-5-ol] | 47.8 | 69.1 | – | –

Row | SMILES | Transrepression U937 Cells GITAR Emax [3] [%] | EC50 [1] [nM] | Emax [2] [%] | EC50 [4] [nM] | Emax [5] [%]
20 | Cc1cccnc1C(O)C[C@]1(O)CCC2=Cc3c(cnn3-c3ccc(F)cc3)C[C@@]21C (single isomer, unassigned) [Example 1b] | 58.3 | 233 | – | – | –
21 | C[C@]12Cc3cnn(-c4ccc(F)cc4)c3C=C1CC[C@@]2(O)CC(O)c1ccccn1 (single isomer, unassigned) [Example 2b] | 68.6 | 128 | – | – | –
22 | C[C@]12Cc3cnn(-c4ccc(F)cc4)c3C=C1CC[C@@]2(O)CC(O)c1cc(Cl)ccn1 (single isomer, unassigned) [Example 8b] | 91.1 | 23.7 | – | – | –
